Results taken from ChEMBL document CHEMBL1127074, “Novel hypotensive agents from Verbesina caracasana. 2. Synthesis and pharmacology of caracasanamide” (1993).
Several values for one entry are separate records, joined by “and”; a condition that tells them apart may be missing. Equal values may be shown once.

Tests used:
Rattus norvegicus [1] = assay: Change in respiratory frequency administered at 6400 ug/kg iv in anesthetized rats; format: functional
Rattus norvegicus [2] = assay: Tested for the change in diastolic blood pressure administered at 800 ug/kg intravenously in anesthetized rats; format: functional, Artery
Rattus norvegicus [3] = assay: Tested for the change in systolic blood pressure administered at 6400 ug/kg intravenously in anesthetized rats in presence of propranolol (3 mg/kg); format: functional, Artery
Rattus norvegicus [4] = assay: Tested for the change in diastolic blood pressure administered at 6400 ug/kg iv in anesthetized rats in presence of propranolol (3 mg/kg); format: functional, Artery
Rattus norvegicus [5] = assay: Change in heart rate administered at 3200 ug/kg iv in anesthetized rats in presence of propranolol (3 mg/kg) (p<0.05); format: functional
Rattus norvegicus [6] = assay: Maximum rate of rise of the left ventricular isovolumetric pressure administered at 3200 ug/kg iv in anesthetized rats in presence of […] (3 mg/kg) (p<0.05); format: functional, Heart left ventricle
Rattus norvegicus [7] = assay: Tested for the change in diastolic blood pressure administered at 6400 ug/kg iv in anesthetized rats in presence of hexamethonium (5 mg/kg) (p<0.05); format: functional, Artery
Rattus norvegicus [8] = assay: Maximum rate of rise of the left ventricular isovolumetric pressure administered at 1600 ug/kg iv in anesthetized rats in presence of hexamethonium (5 mg/kg) (p<0.05); format: functional, Heart left ventricle
Rattus norvegicus [9] = assay: Change in respiratory frequency administered at 800 ug/kg iv in anesthetized rats; format: functional
Rattus norvegicus [10] = assay: Maximum rate of rise of the left ventricular isovolumetric pressure (dP/dt) administered at 400 ug/kg iv in anesthetized rats; format: functional, Heart left ventricle
Rattus norvegicus [11] = assay: Maximum rate of rise of the left ventricular isovolumetric pressure administered at 200 ug/kg iv in anesthetized rats in presence of spinalization under vagotomy; format: functional, Heart left ventricle
Rattus norvegicus [12] = assay: Tested for the change in diastolic blood pressure administered at 3200 ug/kg iv in anesthetized rats in presence of phentolamine (2 mg/kg); format: functional, Artery
Rattus norvegicus [13] = assay: Change in heart rate administered at 3200 ug/kg iv in anesthetized rats in presence of spinalization under vagotomy (p<0.05); format: functional
Rattus norvegicus [14] = assay: Tested for the change in diastolic blood pressure administered at 1600 ug/kg iv in anesthetized rats in presence of hexamethonium (5 mg/kg) (p<0.05); format: functional, Artery
Rattus norvegicus [15] = assay: Tested for the change in systolic blood pressure administered at 3200 ug/kg intravenously in anesthetized rats in presence of hexamethonium (5 mg/kg) (p<0.05); format: functional, Artery
Rattus norvegicus [16] = assay: Maximum rate of rise of the left ventricular isovolumetric pressure administered at 800 ug/kg iv in anesthetized rats in presence of phentolamine (2 mg/kg); format: functional, Heart left ventricle
Rattus norvegicus [17] = assay: Tested for the change in systolic blood pressure administered at 800 ug/kg intravenously in anesthetized rats in presence of propranolol (3 mg/kg); format: functional, Artery
Rattus norvegicus [18] = assay: Maximum rate of rise of the left ventricular isovolumetric pressure (dP/dt) administered at 1600 ug/kg iv in anesthetized rats; format: functional, Heart left ventricle
Rattus norvegicus [19] = assay: Tested for the change in systolic blood pressure administered at 6400 ug/kg intravenously in anesthetized rats in presence of hexamethonium (5 mg/kg) (p<0.05); format: functional, Artery
Rattus norvegicus [20] = assay: Change in heart rate administered at 800 ug/kg iv in anesthetized rats in presence of propranolol (3 mg/kg) (p<0.05); format: functional
Rattus norvegicus [21] = assay: Change in respiratory frequency administered at 50 ug/kg iv in anesthetized rats; format: functional
Rattus norvegicus [22] = assay: Change in respiratory frequency administered at 400 ug/kg iv in anesthetized rats; format: functional
Rattus norvegicus [23] = assay: Change in heart rate administered at 3200 ug/kg iv in anesthetized rats in presence of phentolamine (2 mg/kg); format: functional
Rattus norvegicus [24] = assay: Tested for the change in systolic blood pressure administered at 200 ug/kg iv in anesthetized rats in presence of spinalization under vagotomy; format: functional, Artery
Rattus norvegicus [25] = assay: Change in heart rate administered at 800 ug/kg iv in anesthetized rats in presence of hexamethonium (5 mg/kg) (p<0.05); format: functional
Rattus norvegicus [26] = assay: Maximum rate of rise of the left ventricular isovolumetric pressure administered at 100 ug/kg iv in anesthetized rats in presence of spinalization under vagotomy; format: functional, Heart left ventricle
Rattus norvegicus [27] = assay: Maximum rate of rise of the left ventricular isovolumetric pressure (dP/dt) administered at 6400 ug/kg iv in anesthetized rats; format: functional, Heart left ventricle
Rattus norvegicus [28] = assay: Tested for the change in systolic blood pressure administered at 3200 ug/kg intravenously in anesthetized rats in presence of propranolol (3 mg/kg); format: functional, Artery
Rattus norvegicus [29] = assay: Tested for the change in diastolic blood pressure administered at 800 ug/kg iv in anesthetized rats in presence of hexamethonium (5 mg/kg) (p<0.05); format: functional, Artery
Rattus norvegicus [30] = assay: Tested for the change in systolic blood pressure administered at 800 ug/kg intravenously in anesthetized rats in presence of phentolamine (2 mg/kg); format: functional, Artery
Rattus norvegicus [31] = assay: Tested for the change in diastolic blood pressure administered at 50 ug/kg intravenously in anesthetized rats; format: functional, Artery
Rattus norvegicus [32] = assay: Tested for change in diastolic blood pressure administered at 4.12 uM/kg iv in anesthetized rats; format: functional, Artery
Rattus norvegicus [33] = assay: Tested for the change in diastolic blood pressure administered at 3200 ug/kg iv in anesthetized rats in presence of propranolol (3 mg/kg); format: functional, Artery
Rattus norvegicus [34] = assay: Tested for the change in systolic blood pressure administered at 1600 ug/kg intravenously in anesthetized rats in presence of propranolol (3 mg/kg); format: functional, Artery
Rattus norvegicus [35] = assay: Tested for the change in systolic blood pressure administered at 3200 ug/kg iv in anesthetized rats in presence of spinalization under vagotomy (p<0.05); format: functional, Artery
Rattus norvegicus [36] = assay: Maximum rate of rise of the left ventricular isovolumetric pressure administered at 800 ug/kg iv in anesthetized rats in presence of […] (3 mg/kg) (p<0.05); format: functional, Heart left ventricle
Rattus norvegicus [37] = assay: Maximum rate of rise of the left ventricular isovolumetric pressure administered at 800 ug/kg iv in anesthetized rats in presence of hexamethonium (5 mg/kg) (p<0.05); format: functional, Heart left ventricle
Rattus norvegicus [38] = assay: Change in respiratory frequency administered at 200 ug/kg iv in anesthetized rats; format: functional
Rattus norvegicus [39] = assay: Maximum rate of rise of the left ventricular isovolumetric pressure (dP/dt) administered at 200 ug/kg iv in anesthetized rats; format: functional, Heart left ventricle
Rattus norvegicus [40] = assay: Maximum rate of rise of the left ventricular isovolumetric pressure administered at 3200 ug/kg iv in anesthetized rats in presence of spinalization under vagotomy (p<0.05); format: functional, Heart left ventricle
Rattus norvegicus [41] = assay: Tested for the change in systolic blood pressure administered at 6400 ug/kg intravenously in anesthetized rats; format: functional, Artery
Rattus norvegicus [42] = assay: Maximum rate of rise of the left ventricular isovolumetric pressure (dP/dt) administered at 50 ug/kg iv in anesthetized rats; format: functional, Heart left ventricle

`COc1ccc(/C=C/C(=O)NCCCC/N=C(\N)NCC=C(C)C)cc1OC` was tested, and the Frequency (Rattus norvegicus [1]) was -87 beats min-1 and -80%, the Blood pressure (Rattus norvegicus [2]) was -15 mmHg and -23% and the Blood pressure (Rattus norvegicus [3]) was -35 mmHg. For the same compound, the Blood pressure (Rattus norvegicus [4]) was -28 mmHg, the Heart rate (Rattus norvegicus [5]) was 9 beats min-1 and the dp/dt (Rattus norvegicus [6]) was 760 mmHg s-1. The Blood pressure (Rattus norvegicus [7]) was -20 mmHg, the dp/dt (Rattus norvegicus [8]) was 1008 mmHg s-1 and the Frequency (Rattus norvegicus [9]) was 25 beats min-1 and 24%. It also gave a BP (Rattus norvegicus [10]) of 33%, a dp/dt (Rattus norvegicus [10]) of 1712 mmHg s-1 and a dp/dt (Rattus norvegicus [11]) of 0 mmHg s-1. It also gave a Blood pressure (Rattus norvegicus [12]) of -39 mmHg, a Heart rate (Rattus norvegicus [13]) of 3 beats min-1 and a Blood pressure (Rattus norvegicus [14]) of -9 mmHg. For the same compound, the Blood pressure (Rattus norvegicus [15]) was -11 mmHg, the dp/dt (Rattus norvegicus [16]) was 2503 mmHg s-1 and the Blood pressure (Rattus norvegicus [17]) was -18 mmHg. For the same compound, the BP (Rattus norvegicus [18]) was 57%, the dp/dt (Rattus norvegicus [18]) was 2996 mmHg s-1 and the Blood pressure (Rattus norvegicus [19]) was -13 mmHg. For the same compound, the Heart rate (Rattus norvegicus [20]) was 6 beats min-1, the Frequency (Rattus norvegicus [21]) was 6 beats min-1 and 6% and the Frequency (Rattus norvegicus [22]) was 16 beats min-1 and 16%. For the same compound, the Heart rate (Rattus norvegicus [23]) was 24 beats min-1, the Blood pressure (Rattus norvegicus [24]) was 0 mmHg and the Heart rate (Rattus norvegicus [25]) was 5 beats min-1. It also gave a dp/dt (Rattus norvegicus [26]) of 0 mmHg s-1, a BP (Rattus norvegicus [27]) of 58% and a dp/dt (Rattus norvegicus [27]) of 3074 mmHg s-1. For the same compound, the Blood pressure (Rattus norvegicus [28]) was -30 mmHg, the Blood pressure (Rattus norvegicus [29]) was -6 mmHg and the Blood pressure (Rattus norvegicus [30]) was -22 mmHg. For the same compound, the Blood pressure (Rattus norvegicus [31]) was -5 mmHg and -8%, the Blood pressure (Rattus norvegicus [32]) was -18 mmHg and the Blood pressure (Rattus norvegicus [33]) was -26 mmHg. The Blood pressure (Rattus norvegicus [34]) was -25 mmHg, the Blood pressure (Rattus norvegicus [35]) was -8 mmHg and -12 mmHg and the dp/dt (Rattus norvegicus [36]) was 415 mmHg s-1. The dp/dt (Rattus norvegicus [37]) was 890 mmHg s-1, the Frequency (Rattus norvegicus [38]) was 12 beats min-1 and 12% and the BP (Rattus norvegicus [39]) was 25%. For the same compound, the dp/dt (Rattus norvegicus [39]) was 1284 mmHg s-1, the dp/dt (Rattus norvegicus [40]) was 680 mmHg s-1 and the Blood pressure (Rattus norvegicus [41]) was -34 mmHg and -40%. It also gave a BP (Rattus norvegicus [42]) of 1% and a dp/dt (Rattus norvegicus [42]) of 52 mmHg s-1.
